Assay results published in ChEMBL document CHEMBL1201862, “PubChem BioAssay data set” (2004).
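Where inhibition never reached the appropriate level, the endpoint shown equals the highest concentration tested. Otherwise, values were interpolated linearly from a five-concentration, 48-hour dose response in 96-well plates. The concentration for 50% growth inhibition is given as GI50.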 Activity calls are given as the source filed them. Cut-off read from the data, not from the text of the source: active = GI50 up to about 1.1 µM and inactive = higher.

How the values were obtained:
Assay in all cases: NCI tumour cell line growth inhibition, 48 h
T47D = system: T47D
BT-549 = system: BT-549
UACC-257 = system: UACC-257
EKVX = system: EKVX
RXF 393 = system: RXF 393
SK-MEL-5 = system: SK-MEL-5
NCI/ADR-RES = system: NCI/ADR-RES
UO-31 = system: UO-31
MDA-MB-231 = system: MDA-MB-231
SF-268 = system: SF-268
SNB-75 = system: SNB-75
SF-539 = system: SF-539
K562 = system: K562
SK-MEL-2 = system: SK-MEL-2
TK-10 = system: TK-10
RPMI-8226 = system: RPMI-8226
SW-620 = system: SW-620
SNB-19 = system: SNB-19
SK-OV-3 = system: SK-OV-3
MOLT-4 = system: MOLT-4
CAKI-1 = system: CAKI-1
SF-295 = system: SF-295
HL-60 = system: HL-60
MDA-MB-435 = system: MDA-MB-435
UACC-62 = system: UACC-62
HCT-116 = system: HCT-116
OVCAR-8 = system: OVCAR-8
MDA-N = system: MDA-N
NCI-H460 = system: NCI-H460
CCRF-CEM = system: CCRF-CEM
HT-29 = system: HT-29
IGROV-1 = system: IGROV-1
SK-MEL-28 = system: SK-MEL-28
HOP-62 = system: HOP-62
MCF7 = system: MCF7
DU-145 = system: DU-145
SN12C = system: SN12C
OVCAR-5 = system: OVCAR-5
786-0 = system: 786-0
COLO 205 = system: COLO 205
HOP-92 = system: HOP-92
A549 = system: A549
KM12 = system: KM12
LOX IMVI = system: LOX IMVI
Hs-578T = system: Hs-578T
NCI-H23 = system: NCI-H23
OVCAR-4 = system: OVCAR-4
M14 = system: M14
Malme-3M = system: Malme-3M
HCC 2998 = system: HCC 2998
A498 = system: A498
ACHN = system: ACHN
OVCAR-3 = system: OVCAR-3
HCT-15 = system: HCT-15
U-251 = system: U-251
PC-3 = system: PC-3
NCI-H522 = system: NCI-H522
NCI-H226 = system: NCI-H226
SR = system: SR

CC1CC2(OC2C)C(=O)OC2CCN(C)C/C=C(/COC(=O)C1(C)O)C2=O (stereo not given)
GI50 (T47D): > 100 µM (inactive) | GI50 (BT-549): > 100 µM (inactive) | GI50 (UACC-257): > 100 µM (inactive) | GI50 (EKVX): > 100 µM (inactive) | GI50 (RXF 393): > 100 µM (inactive) | GI50 (SK-MEL-5): > 100 µM (inactive) | GI50 (NCI/ADR-RES): > 100 µM (inactive) | GI50 (UO-31): > 100 µM (inactive) | GI50 (MDA-MB-231): > 100 µM (inactive) | GI50 (SF-268): > 100 µM (inactive) | GI50 (SNB-75): > 100 µM (inactive) | GI50 (SF-539): > 100 µM (inactive) | GI50 (K562): > 100 µM (inactive) | GI50 (SK-MEL-2): > 100 µM (inactive) | GI50 (TK-10): > 100 µM (inactive) | GI50 (RPMI-8226): > 100 µM (inactive) | GI50 (SW-620): > 100 µM (inactive) | GI50 (SNB-19): > 100 µM (inactive) | GI50 (SK-OV-3): > 100 µM (inactive) | GI50 (MOLT-4): > 10 µM (inactive) | GI50 (CAKI-1): > 100 µM (inactive) | GI50 (SF-295): > 100 µM (inactive) | GI50 (HL-60): > 100 µM (inactive) | GI50 (MDA-MB-435): > 100 µM (inactive) | GI50 (UACC-62): > 100 µM (inactive) | GI50 (HCT-116): > 100 µM (inactive) | GI50 (OVCAR-8): > 100 µM (inactive) | GI50 (MDA-N): > 100 µM (inactive) | GI50 (NCI-H460): > 100 µM (inactive) | GI50 (CCRF-CEM): > 100 µM (inactive) | GI50 (HT-29): > 100 µM (inactive) | GI50 (IGROV-1): > 100 µM (inactive) | GI50 (SK-MEL-28): > 100 µM (inactive) | GI50 (HOP-62): > 100 µM (inactive) | GI50 (MCF7): > 100 µM (inactive) | GI50 (DU-145): > 100 µM (inactive) | GI50 (SN12C): > 100 µM (inactive) | GI50 (OVCAR-5): > 100 µM (inactive) | GI50 (786-0): > 100 µM (inactive) | GI50 (COLO 205): > 100 µM (inactive) | GI50 (HOP-92): > 100 µM (inactive) | GI50 (A549): > 100 µM (inactive) | GI50 (KM12): > 100 µM (inactive) | GI50 (LOX IMVI): > 100 µM (inactive) | GI50 (Hs-578T): > 100 µM (inactive) | GI50 (NCI-H23): > 100 µM (inactive) | GI50 (OVCAR-4): > 100 µM (inactive) | GI50 (M14): > 100 µM (inactive) | GI50 (Malme-3M): > 100 µM (inactive) | GI50 (HCC 2998): > 100 µM (inactive) | GI50 (A498): > 100 µM (inactive) | GI50 (ACHN): > 100 µM (inactive) | GI50 (OVCAR-3): > 100 µM (inactive) | GI50 (HCT-15): > 100 µM | GI50 (U-251): > 100 µM (inactive) | GI50 (PC-3): > 100 µM (inactive) | GI50 (NCI-H522): > 100 µM (inactive)

CCNC(=S)N/N=C/c1ccccn1
GI50 (T47D): 1.98 µM (inactive) | GI50 (BT-549): 20.9 µM (inactive) | GI50 (UACC-257): 6.65 µM (inactive) | GI50 (NCI-H226): 3.83 µM (inactive) | GI50 (EKVX): 4.54 µM (inactive) | GI50 (RXF 393): 19 µM (inactive) | GI50 (SK-MEL-5): 3.95 µM (inactive) | GI50 (NCI/ADR-RES): 6.95 µM (inactive) | GI50 (UO-31): 2.44 µM (inactive) | GI50 (MDA-MB-231): 7.05 µM (inactive) | GI50 (SF-268): 2.4 µM (inactive) | GI50 (SNB-75): 62.2 µM (inactive) | GI50 (SF-539): 6.7 µM (inactive) | GI50 (K562): 2.86 µM (inactive) | GI50 (SK-MEL-2): 42.2 µM (inactive) | GI50 (TK-10): 25.2 µM (inactive) | GI50 (SW-620): 6 µM (inactive) | GI50 (SNB-19): 19.6 µM (inactive) | GI50 (SK-OV-3): 5.07 µM (inactive) | GI50 (MOLT-4): 1.58 µM (inactive) | GI50 (SF-295): 7.14 µM (inactive) | GI50 (HL-60): 3.74 µM (inactive) | GI50 (MDA-MB-435): 16.3 µM (inactive) | GI50 (UACC-62): 9.98 µM (inactive) | GI50 (HCT-116): 8.93 µM (inactive) | GI50 (OVCAR-8): 3.3 µM (inactive) | GI50 (MDA-N): 27.7 µM (inactive) | GI50 (NCI-H460): 4.94 µM (inactive) | GI50 (CCRF-CEM): 0.957 µM (active) | GI50 (HT-29): 4.47 µM (inactive) | GI50 (IGROV-1): 5.11 µM (inactive) | GI50 (SK-MEL-28): 16.7 µM (inactive) | GI50 (HOP-62): 6.12 µM (inactive) | GI50 (MCF7): 3.27 µM (inactive) | GI50 (DU-145): 7.13 µM (inactive) | GI50 (SN12C): 4.97 µM (inactive) | GI50 (OVCAR-5): 15.4 µM (inactive) | GI50 (786-0): 5.81 µM (inactive) | GI50 (COLO 205): 3.24 µM (inactive) | GI50 (A549): 7.62 µM (inactive) | GI50 (KM12): 8.67 µM (inactive) | GI50 (LOX IMVI): 7.18 µM (inactive) | GI50 (Hs-578T): > 100 µM (inactive) | GI50 (NCI-H23): 6.56 µM (inactive) | GI50 (OVCAR-4): 1.29 µM (inactive) | GI50 (M14): 9.4 µM (inactive) | GI50 (Malme-3M): 5.78 µM (inactive) | GI50 (A498): 5.09 µM (inactive) | GI50 (ACHN): 5.69 µM (inactive) | GI50 (OVCAR-3): 0.729 µM (active) | GI50 (HCT-15): 6.64 µM | GI50 (U-251): 6.55 µM (inactive) | GI50 (PC-3): 6.95 µM (inactive) | GI50 (NCI-H522): 0.579 µM (active) | GI50 (SR): > 100 µM (inactive)

CN(C)/C=C/c1ccnc2c1C(=O)c1ccccc1C2=O
GI50 (T47D): > 48.4 µM (inactive) | GI50 (BT-549): 3.59 µM (inactive) | GI50 (UACC-257): 2.25 µM (inactive) | GI50 (NCI-H226): 10.5 µM (inactive) | GI50 (EKVX): 18.3 µM (inactive) | GI50 (RXF 393): > 59.3 µM (inactive) | GI50 (SK-MEL-5): 1.28 µM (inactive) | GI50 (NCI/ADR-RES): 19 µM (inactive) | GI50 (UO-31): 7.48 µM (inactive) | GI50 (MDA-MB-231): 30.6 µM (inactive) | GI50 (SF-268): 13.6 µM (inactive) | GI50 (SNB-75): 5.33 µM (inactive) | GI50 (SF-539): 12.9 µM (inactive) | GI50 (K562): 2.45 µM (inactive) | GI50 (SK-MEL-2): 3.65 µM (inactive) | GI50 (TK-10): > 92.7 µM (inactive) | GI50 (RPMI-8226): 3.48 µM (inactive) | GI50 (SW-620): 3.21 µM (inactive) | GI50 (SNB-19): 5.89 µM (inactive) | GI50 (SK-OV-3): 44 µM (inactive) | GI50 (MOLT-4): 22.5 µM (inactive) | GI50 (CAKI-1): 16.3 µM (inactive) | GI50 (SF-295): 4.56 µM (inactive) | GI50 (HL-60): 10.9 µM (inactive) | GI50 (MDA-MB-435): 1.35 µM (inactive) | GI50 (UACC-62): 1.38 µM (inactive) | GI50 (HCT-116): 3.22 µM (inactive) | GI50 (OVCAR-8): 15.5 µM (inactive) | GI50 (MDA-N): 1.32 µM (inactive) | GI50 (NCI-H460): 2.35 µM (inactive) | GI50 (CCRF-CEM): 16.5 µM (inactive) | GI50 (HT-29): 14.8 µM (inactive) | GI50 (IGROV-1): 12.2 µM (inactive) | GI50 (SK-MEL-28): 2.48 µM (inactive) | GI50 (HOP-62): 15.6 µM (inactive) | GI50 (MCF7): 4.46 µM (inactive) | GI50 (DU-145): 1.73 µM (inactive) | GI50 (SN12C): 5.2 µM (inactive) | GI50 (OVCAR-5): 17.3 µM (inactive) | GI50 (786-0): 17.2 µM (inactive) | GI50 (COLO 205): 24.9 µM (inactive) | GI50 (HOP-92): 31.8 µM (inactive) | GI50 (A549): 8.99 µM (inactive) | GI50 (KM12): 9.66 µM (inactive) | GI50 (LOX IMVI): 2.79 µM (inactive) | GI50 (Hs-578T): 2.78 µM (inactive) | GI50 (NCI-H23): 2.48 µM (inactive) | GI50 (OVCAR-4): 23.4 µM (inactive) | GI50 (M14): 1.92 µM (inactive) | GI50 (Malme-3M): 2.03 µM (inactive) | GI50 (HCC 2998): 7.64 µM (inactive) | GI50 (A498): 31.9 µM (inactive) | GI50 (ACHN): 6.73 µM (inactive) | GI50 (OVCAR-3): 3.74 µM (inactive) | GI50 (HCT-15): 3.34 µM | GI50 (U-251): 15.2 µM (inactive) | GI50 (PC-3): 8 µM (inactive) | GI50 (NCI-H522): 8.51 µM (inactive)
